Earlier results in patent US20050239189A1, “Oxidant-scavenging compound for anaerobic treatment” (priority 2004, published 2005).

Test system: CVOC dehalogenation
Details: eight case studies reported by Regenesis, Inc. (2000)

## CC(O)C(=O)O (stereo not shown) [Lactic Acid]
  stimulation of CVOC dehalogenation: stimulated CVOC dehalogenation
